Data on one compound can be found in ChEMBL document CHEMBL1155033, “Catalytic analysis of the validamycin glycosyltransferase (ValG) and enzymatic production of 4''-epi-validamycin A” (J Nat Prod, 2008).

The test system of this assay is Rhizoctonia solani. As to the kind of experiment: Growth inhibition of Rhizoctonia solani assessed as inhibition of fungal mycelia expansion at 1 mg after 2 days by agar plug assay. The class given is functional, organism-based.

Each structure is given as a SMILES string. Activity calls are given as the source filed them. The rule behind the calls is not given here.

For `OCC1=C[C@@H](N[C@H]2C[C@H](CO)[C@@H](O[C@H]3O[C@@H](CO)[C@H](O)[C@@H](O)[C@@H]3O)[C@H](O)[C@H]2O)[C@H](O)[C@@H](O)[C@@H]1O`, the result was Active.
